One assay concerns the target T1, FKBP12 (Homo sapiens, UniProt P62942).
T1 construct: His-tag (HRV 3C cleavable) (cleaved yes); made in house; host or cells: Escherichia coli BL21(DE3)
The assay is described as follows: Competition fluorescence polarization assay with FITC-rapamycin tracer. Format: binding.

A further assay concerns the target T2, mTOR (Homo sapiens, UniProt P42345).
T2 construct: We performed in vitro kinase assays with purified mTOR protein; purchased SelectScreen Services (Thermo Fisher Scientific)
The assay is described as follows: In vitro mTOR kinase inhibition assay (SelectScreen Z'-LYTE), with or without 10 µM FKBP12. The note with it: for remaining activity at 4.95 pM / remaining activity at 15.2 pM / remaining activity at 45.7 pM / remaining activity at 0.000137 µM / remaining activity at 0.000412 µM / remaining activity at 0.00123 µM / remaining activity at 0.0111 µM / remaining activity at 0.0333 µM / remaining activity at […]: read-out: residual kinase activity (mTOR); for remaining activity at 0.0333 µM: 33.3 nM drug. Type of assay: biochemical.

Setting [1] is: recombinant FKBP12, Extended Data Fig. 2, read-out: Kd (FKBP12).

Like-named read-outs stand apart in the source and are kept apart here.

The term Kd denotes the concentration at which binding is half-saturated.

T2 sequence (P42345 1360-2549 limits assumed): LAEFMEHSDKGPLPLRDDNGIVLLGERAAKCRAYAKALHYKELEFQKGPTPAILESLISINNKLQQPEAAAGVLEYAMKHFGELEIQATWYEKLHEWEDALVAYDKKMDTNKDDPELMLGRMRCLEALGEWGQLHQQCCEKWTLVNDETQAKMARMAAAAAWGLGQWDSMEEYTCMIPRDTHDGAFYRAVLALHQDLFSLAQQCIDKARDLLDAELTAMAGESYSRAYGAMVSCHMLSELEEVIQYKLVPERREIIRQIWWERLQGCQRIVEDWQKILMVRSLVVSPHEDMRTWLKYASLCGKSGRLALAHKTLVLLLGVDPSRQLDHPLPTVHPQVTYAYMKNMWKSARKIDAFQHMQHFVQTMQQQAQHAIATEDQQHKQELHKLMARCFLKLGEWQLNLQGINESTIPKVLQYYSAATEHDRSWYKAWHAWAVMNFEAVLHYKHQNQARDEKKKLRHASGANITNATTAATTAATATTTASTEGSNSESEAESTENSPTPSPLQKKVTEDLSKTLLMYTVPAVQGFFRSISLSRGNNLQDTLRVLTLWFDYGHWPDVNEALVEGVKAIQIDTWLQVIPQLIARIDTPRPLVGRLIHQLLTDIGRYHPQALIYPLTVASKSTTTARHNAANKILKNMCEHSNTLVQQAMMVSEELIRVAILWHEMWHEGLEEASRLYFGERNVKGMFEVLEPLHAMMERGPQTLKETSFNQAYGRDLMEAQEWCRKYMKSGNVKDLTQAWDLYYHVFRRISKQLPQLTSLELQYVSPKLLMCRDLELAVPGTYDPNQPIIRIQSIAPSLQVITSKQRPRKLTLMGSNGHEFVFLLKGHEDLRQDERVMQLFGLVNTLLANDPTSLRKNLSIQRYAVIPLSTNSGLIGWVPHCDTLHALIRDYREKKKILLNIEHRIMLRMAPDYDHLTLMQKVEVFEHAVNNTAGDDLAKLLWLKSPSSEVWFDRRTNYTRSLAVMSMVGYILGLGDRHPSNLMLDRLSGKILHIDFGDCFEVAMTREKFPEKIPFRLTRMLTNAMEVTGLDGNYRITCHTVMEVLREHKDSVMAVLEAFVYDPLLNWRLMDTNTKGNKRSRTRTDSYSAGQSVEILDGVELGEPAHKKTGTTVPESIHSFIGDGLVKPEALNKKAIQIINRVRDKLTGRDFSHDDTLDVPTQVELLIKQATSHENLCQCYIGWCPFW
T1 sequence (P62942 whole entry): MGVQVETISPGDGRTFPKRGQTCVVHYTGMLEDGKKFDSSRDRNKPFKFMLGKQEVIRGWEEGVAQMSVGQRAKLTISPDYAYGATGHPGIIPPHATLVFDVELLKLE
Description for mTOR: In vitro kinase inhibition assays were performed by SelectScreen Services (Thermo Fisher Scientific) using either Z’-LYTE (mTOR, Src, Csk, EGFR, HER2 and HGK), Adapta (LRRK2) or LanthaScreen (DDR2) assay format (standardized protocols can be accessed on the SelectScreen website: https://www.thermofisher.com/us/en/home/products-and-services/services/custom-services/screening-and-profiling-services/selectscreen-profiling-service/selectscreen-kinase-profiling-service.html. When indicated, recombinant FKBP12 protein was added to the assay mixture to a final concentration of 10 µM.

For `CCC(C)(C)C(=O)C(=O)N1CCCC[C@H]1C(=O)O[C@H](CCc1ccc(OC)c(OC)c1)c1cccc(NC(=O)CN=[N+]=[N-])c1` [Compound 02-096], at FKBP12 (setting [1]), the equilibrium dissociation constant (Kd) is 6 nM.
Take `C=CC(=O)Nc1cccc([C@@H](CCc2ccc(OC)c(OC)c2)OC(=O)[C@@H]2CCCCN2C(=O)C(=O)C(C)(C)CC)c1` [Compound 02-014]: the dissociation constant (Kd) on FKBP12 (setting [1]) came to 64 nM.
As for `CCC(C)(C)C(=O)C(=O)N1CCCC[C@H]1C(=O)O[C@H](CCc1ccc(OC)c(OC)c1)c1cccc(OCC(=O)O)c1` [Compound 01-041], at FKBP12 (setting [1]), the Kd amounted to 38 nM.
As to `CC(C)n1nc(-c2ccc3oc(N)nc3c2)c2c(N)ncnc21` [MLN128], the “residual kinase activity (mTOR)” value was 101 on mTOR (0.00495 nM drug, +FKBP); 101 at mTOR (0.00495 nM drug, no FKBP); 105 on mTOR (0.0152 nM drug, +FKBP); 106 at mTOR (0.0152 nM drug, no FKBP); 105 on mTOR (0.0457 nM drug, +FKBP); 104 at mTOR (0.0457 nM drug, no FKBP). The “residual kinase activity (mTOR)” value at mTOR (0.137 nM drug, +FKBP) came out at 101; on mTOR (0.412 nM drug, +FKBP) it was 96; at mTOR (0.412 nM drug, no FKBP), 98; at mTOR (1.23 nM drug, +FKBP), 83; on mTOR (1.23 nM drug, no FKBP), 81; on mTOR (11.1 nM drug, no FKBP), 17. The “residual kinase activity (mTOR)” value on mTOR ([…] drug, +FKBP) turned out to be 53; on mTOR ([…] drug, no FKBP), 50. In addition, the remaining activity at 4.95 pM at mTOR (0.00495 nM drug, +FKBP) turned out to be 103%; at mTOR (0.00495 nM drug, no FKBP), 105%. In addition, the remaining activity at 15.2 pM worked out at 103% at mTOR (0.0152 nM drug, +FKBP) and 101% on mTOR (0.0152 nM drug, no FKBP). The remaining activity at 45.7 pM on mTOR (0.0457 nM drug, +FKBP) amounted to 102%; at mTOR (0.0457 nM drug, no FKBP), 102%. The remaining activity at 0.000137 µM on mTOR (0.137 nM drug, +FKBP) amounted to 106%; at mTOR (0.137 nM drug, no FKBP) it was 103%. In addition, the remaining activity at 0.000412 µM at mTOR (0.412 nM drug, +FKBP) is 97%; on mTOR (0.412 nM drug, no FKBP) it was 99%. The remaining activity at 0.00123 µM at mTOR (1.23 nM drug, +FKBP) amounted to 84%; at mTOR (1.23 nM drug, no FKBP), 84%. In addition, the remaining activity at 0.0111 µM worked out at 19% on mTOR (11.1 nM drug, +FKBP) and 18% on mTOR (11.1 nM drug, no FKBP). For the same compound, the remaining activity at 0.0333 µM at mTOR (+FKBP) and on mTOR (no FKBP) was 6% in each case. Moreover, the remaining activity at […] on mTOR ([…] drug, +FKBP) stood at 49%; at mTOR ([…] drug, no FKBP), 48%.
Consider `CCC(C)(C)C(=O)C(=O)N1CCCC[C@H]1C(=O)O[C@H](CCc1ccc(OC)c(OC)c1)c1cccc(NC(=O)CN)c1` [Compound 01-040], for which, on FKBP12 (setting [1]), the dissociation constant Kd is 21 nM.
Take `CO[C@H]1C[C@@H](C)C/C(C)=C/[C@@H](CCCSC[C@H](N)C(=O)O)C(=O)C[C@H](O)[C@@H](C)[C@@H](/C(C)=C/[C@@H]2CC[C@@H](O)[C@H](OC)C2)OC(=O)[C@@H]2CCCCN2C(=O)C(=O)[C@]2(O)O[C@H]1[C@@H](OC)C[C@H]2C` [Compound 05-037]: binding at FKBP12 was characterised by a dissociation constant (Kd) of 8.7 nM.
Regarding `CCC(C)(C)C(=O)C(=O)N1CCCC[C@H]1C(=O)O[C@H](CCc1ccc(OC)c(OC)c1)c1cccc(N(CC(=O)O)CC(=O)O)c1` [Compound 01-060B], the Kd on FKBP12 (setting [1]) came to 75 nM.
Regarding `CO[C@H]1C[C@@H](C)C/C(C)=C/[C@@H](CCCSCCN)C(=O)C[C@H](O)[C@@H](C)[C@@H](/C(C)=C/[C@@H]2CC[C@@H](O)[C@H](OC)C2)OC(=O)[C@@H]2CCCCN2C(=O)C(=O)[C@]2(O)O[C@H]1[C@@H](OC)C[C@H]2C` [Compound 05-011], the dissociation constant Kd at FKBP12 (setting [1]) worked out at 0.7 nM.
`CO[C@H]1C[C@@H](C)C/C(C)=C/[C@@H](CCCC(=O)Nc2ccccn2)C(=O)C[C@H](O)[C@@H](C)[C@@H](/C(C)=C/[C@@H]2CC[C@@H](O)[C@H](OC)C2)OC(=O)[C@@H]2CCCCN2C(=O)C(=O)[C@]2(O)O[C@H]1[C@@H](OC)C[C@H]2C` [Compound 05-064] had a dissociation constant (Kd) on FKBP12 of 0.2 nM.
As to `CO[C@H]1C[C@@H](C)C/C(C)=C/[C@@H](C/C=C/c2ccncc2)C(=O)C[C@H](O)[C@@H](C)[C@@H](/C(C)=C/[C@@H]2CC[C@@H](O)[C@H](OC)C2)OC(=O)[C@@H]2CCCCN2C(=O)C(=O)[C@]2(O)O[C@H]1[C@@H](OC)C[C@H]2C` [Compound 05-051], the Kd on FKBP12 (setting [1]) was 1.2 nM.
Still for that read-out and setting: the result for `CCC(C)(C)C(=O)C(=O)N1CCCC[C@H]1C(=O)O[C@H](CCc1ccc(OC)c(OC)c1)c1cccc(NC(=O)CN(C)C)c1` [Compound 01-044] reads 13 nM; that for `CO[C@H]1C[C@@H](C)C/C(C)=C/[C@@H](CCCc2cc[n+]([O-])cc2)C(=O)C[C@H](O)[C@@H](C)[C@@H](/C(C)=C/[C@@H]2CC[C@@H](O)[C@H](OC)C2)OC(=O)[C@@H]2CCCCN2C(=O)C(=O)[C@]2(O)O[C@H]1[C@@H](OC)C[C@H]2C` [Compound 05-092], 2.5 nM; that for `CO[C@H]1C[C@@H](C)C/C(C)=C/[C@@H](CCCSCCN(C)C)C(=O)C[C@H](O)[C@@H](C)[C@@H](/C(C)=C/[C@@H]2CC[C@@H](O)[C@H](OC)C2)OC(=O)[C@@H]2CCCCN2C(=O)C(=O)[C@]2(O)O[C@H]1[C@@H](OC)C[C@H]2C` [Compound 05-013], 1.4 nM.
On to `CCC(C)(C)C(=O)C(=O)N1CCCC[C@H]1C(=O)O[C@H](CCc1ccc(OC)c(OC)c1)c1cccc(NC(=O)Cc2cccc[n+]2[O-])c1` [Compound 03-087], for which the Kd at FKBP12 (setting [1]) came to 29 nM.
Consider `CCC(C)(C)C(=O)C(=O)N1CCCC[C@H]1C(=O)O[C@H](CCc1ccc(OC)c(OC)c1)c1cccc(NC(=O)CCOCCN)c1` [Compound 03-084], for which the dissociation constant (Kd) at FKBP12 (setting [1]) came out at 19 nM.
Same read-out and setting: the result for `CCC(C)(C)C(=O)C(=O)N1CCCC[C@H]1C(=O)O[C@H](CCc1ccc(OC)c(OC)c1)c1cccc(NC(=O)CN2CCN(C)CC2)c1` [Compound 01-072] reads 13 nM; that for `CCC(C)(C)C(=O)C(=O)N1CCCC[C@H]1C(=O)O[C@H](CCc1ccc(OC)c(OC)c1)c1cccc(NC(=O)CCOCCOCCN)c1` [Compound 03-077], 44 nM; that for `CO[C@H]1C[C@@H](C)C/C(C)=C/[C@@H](C/C=C/c2cccc[n+]2[O-])C(=O)C[C@H](O)[C@@H](C)[C@@H](/C(C)=C/[C@@H]2CC[C@@H](O)[C@H](OC)C2)OC(=O)[C@@H]2CCCCN2C(=O)C(=O)[C@]2(O)O[C@H]1[C@@H](OC)C[C@H]2C` [Compound 05-060], 0.6 nM.
As to `CCC(C)(C)C(=O)C(=O)N1CCCC[C@H]1C(=O)O[C@H](CCc1ccc(OC)c(OC)c1)c1cccc(NC(=O)Cc2ccccn2)c1` [Compound 03-083], the Kd on FKBP12 (setting [1]) was determined as 31 nM.
Regarding `CO[C@H]1C[C@@H](C)C/C(C)=C/[C@@H](C/C=C/c2cc[n+]([O-])cc2)C(=O)C[C@H](O)[C@@H](C)[C@@H](/C(C)=C/[C@@H]2CC[C@@H](O)[C@H](OC)C2)OC(=O)[C@@H]2CCCCN2C(=O)C(=O)[C@]2(O)O[C@H]1[C@@H](OC)C[C@H]2C` [Compound 05-061], at FKBP12 (setting [1]), the dissociation constant (Kd) amounted to 0.2 nM.
For `CO[C@H]1C[C@@H](C)C/C(C)=C/[C@@H](CCCc2ccccn2)C(=O)C[C@H](O)[C@@H](C)[C@@H](/C(C)=C/[C@@H]2CC[C@@H](O)[C@H](OC)C2)OC(=O)[C@@H]2CCCCN2C(=O)C(=O)[C@]2(O)O[C@H]1[C@@H](OC)C[C@H]2C` [05-084 (06-039)], on FKBP12 (setting [1]), the Kd came out at 3.3 nM.
For the compound `CCC(C)(C)C(=O)C(=O)N1CCCC[C@H]1C(=O)O[C@H](CCc1ccc(OC)c(OC)c1)c1cccc(NC(=O)CS)c1` [Compound 02-055], the Kd at FKBP12 (setting [1]) came to 64 nM.
With `CO[C@H]1C[C@@H](C)C/C(C)=C/[C@@H](C/C=C/c2ccccn2)C(=O)C[C@H](O)[C@@H](C)[C@@H](/C(C)=C/[C@@H]2CC[C@@H](O)[C@H](OC)C2)OC(=O)[C@@H]2CCCCN2C(=O)C(=O)[C@]2(O)O[C@H]1[C@@H](OC)C[C@H]2C` [Compound 05-050], on FKBP12 (setting [1]), the Kd was determined as 3.6 nM.
With `CO[C@H]1C[C@@H](C)C/C(C)=C/[C@@H](C/C=C/C(=O)O)C(=O)C[C@H](O)[C@@H](C)[C@@H](/C(C)=C/[C@@H]2CC[C@@H](O)[C@H](OC)C2)OC(=O)[C@@H]2CCCCN2C(=O)C(=O)[C@]2(O)O[C@H]1[C@@H](OC)C[C@H]2C` [Compound 05-012], the Kd at FKBP12 (setting [1]) was found to be 0.4 nM.
Turning to `CCC(C)(C)C(=O)C(=O)N1CCCC[C@H]1C(=O)O[C@H](CCc1ccc(OC)c(OC)c1)c1cccc(NC(=O)CNC(=N)N)c1` [Compound 01-065], the Kd at FKBP12 (setting [1]) is 38 nM.
On to `CCC(C)(C)C(=O)C(=O)N1CCCC[C@H]1C(=O)O[C@H](CCc1ccc(OC)c(OC)c1)c1cccc(NCC(=O)O)c1` [Compound 01-060A], for which, on FKBP12 (setting [1]), the dissociation constant (Kd) was found to be 46 nM.
For `CCC(C)(C)C(=O)C(=O)N1CCCC[C@H]1C(=O)O[C@H](CCc1ccc(OC)c(OC)c1)c1cccc(NCCN)c1` [Compound 02-032], at FKBP12 (setting [1]), the Kd is 36 nM.
Still for that read-out and setting: the result for `CCC(C)(C)C(=O)C(=O)N1CCCC[C@H]1C(=O)O[C@H](CCc1ccc(OC)c(OC)c1)c1cccc(OCCN)c1` [Compound 01-038] reads 9.4 nM.

The values above are taken from PMC9492542, “Brain-restricted mTOR inhibition with binary pharmacology” (Nature, 2022).
